Measurements reported in patent US10426765B2, “Pharmaceutical composition containing nicotinic acid and/or nicotinamide and/or tryptophan for positively influencing the intestinal microbiota” (CONARIS RESEARCH INSTITUTE AG, priority 2012, dated 2019).

Legend:
[1] = tested on: DSS colitis in ACE2-deficient mice; experiment: DSS colitis in ACE2-deficient mice given nicotinamide or tryptophan dipeptides (Example 1); assay type: in vivo; conditions: prophylactic and permanent administration
Text: Top row: histopathology of the colon (haematoxylin eosin staining on day 10 after DSS administration; bar: 100 μm (a)), weight loss in percent (b) and diarrhea score (c) of DSS-challenged ACE2-normal (ACE2+/y) and ACE2-deficient (ACE2-/y) mice which were given vehicle or nicotinamide (NAM) in the drinking water. The NAM administration began 3 days before the DSS administration. Bottom row: histopathology of the colon (haematoxylin eosin staining on day 7 after DSS challenge; bar: 100 μm (d)), weight loss in percent (e) and damage of the crypts of the colon (f) in DSS-challenged ACE2-normal (ACE2+/y) and ACE2-deficient (ACE2-/y) mice which received normal diet (control) or a tryptophan-dipeptide diet (Trp+). New and findings unpublished at the time the priority application was filed, since published as Hashimoto et al. (Nature 2012, 487:477), support the teachings of the present invention and are briefly described here for the purpose of illustration: It is known that the expression of the transporter for neutral amino acids B^0 AT1 (which transports tryptophan) on the surface of intestinal epithelial cells is bound to the presence of the angiotensin converting enzyme 2 (ACE2) (Kowalczuk et al. 2008, FASEB J. 22:2880; Camargo et al. 2009, Gastroenterology 136:872). […]

[2] = tested on: Crohn's disease; experiment: Crohn's disease activity index (CDAI) in patients treated with nicotinamide (Example 2); assay type: in vivo, human; conditions: three Crohn's disease patients
Text: A value of CDAI<150 is equivalent to remission.

[3] = cited from earlier work

NC(=O)c1cccnc1 [nicotinamide]
intensification of DSS-induced intestinal inflammation in Ace2-/y mice [1]: reduce this effect
response of Crohn's disease activity index (CDAI) ([2]; conventionally formulated nicotinamide 2×600 mg daily for 4 weeks): clear response
remission (CDAI<150) within the therapy period ([2]; nicotinamide 2×600 mg daily for 4 weeks): two of them achieved the remission
water solubility [3]: high water solubility
